Reference: US20240270749A1, “1,2,4-TRIAZOLO[1,5-A]PYRIMIDINE-BASED SLC16A3 INHIBITORS AND THEIR THERAPEUTIC USE” (CEMM - FORSCHUNGSZENTRUM FÜR MOLEKULARE MEDIZIN GMBH, priority 2021, published 2024)
“Also recorded” adds a separate entry of the source.

What was measured:
Assay type in all cases: cell-based
HAP1 WT cells = experiment: Synthetic lethality guided viability screening (CellTiter Glo), HAP1 WT cells; conditions: Homo sapiens, 72 hours, Cell titer glo, from dose response curves
Protocol: (§1) Compounds were printed to individual wells of 384 well plates (Corning) with Echo acoustic liquid dispenser (Labcyte). HAP1 cells were seeded using a dispenser (Thermo Fischer Scientific) in density 1,000 cells per well in 50 μl. As controls, DMSO or Bortezomib treatments were used. Viability of cells was assessed after 72 hours with CellTiter Glo (Promega) and % of controls were calculated based on RLU values in DMSO (100%) and Bortezomib (0%) wells. First screening was performed in 10 μM final concentration. Second screening was performed in technical duplicates, in 4 point dose response setting, with concentrations ranging from 13-0.5 μM. Third screening was performed in technical triplicates in 6 point dose response setting, with concentrations ranging from 27-0.11 μM. LAMA84 cells were used in density 3,000 cells per well. AZD3965, BAY-8002, syrosingopine and compounds obtained from third party vendors were tested in 96 well plates, with 2,500 cells per well with manual seeding and treatment. Compound efficacy was determined either by comparing % of control, or by IC50 estimation based on dose response curves (calculated with R package drc, or with GraphPad Prism).
(§2) Table 1: Results of synthetic lethality guided chemical screening assay. HAP1 WT, HAP1 SLC16A1^−/− or HAP1 SLC16A3^−/− cell lines were treated with presented compounds for 72 hours and viability was determined by Cell titer glo assay (Promega). Data are presented either as a percentage of viability in HAP1 SLC16A1^−/− cells compared to controls (DMSO=100% and Bortezomib=0%) upon single dose treatment (10 μM) or as IC50 values obtained from dose response curves.

HAP1 SLC16A1^−/− cells [1] = experiment: Synthetic lethality guided viability screening (CellTiter Glo), HAP1 SLC16A1-/- cells (SLC16A3-dependent); conditions: for IC50 / viability at 10 µM: Homo sapiens, HAP1, 72 hours, Cell titer glo; for IC50: from dose response curves; for viability at 10 µM: single dose 10 μM, compared to controls DMSO=100%, Bortezomib=0%, read-out: HAP1 SLC16A1^−/− % of viability
Protocol: as §1, §2

HAP1 SLC16A3^−/− cells = experiment: Synthetic lethality guided viability screening (CellTiter Glo), HAP1 SLC16A3-/- cells (SLC16A1-dependent); conditions: for IC50: Homo sapiens, HAP1, 72 hours, Cell titer glo, from dose response curves, read-out: HAP1 SLC16A31^−/− IC50
Protocol: as §1, §2

[2] = system: HAP1 dependent on SLC16A7; experiment: Viability of HAP1 cells dependent on SLC16A7; conditions: SLC16A7 overexpressed in HAP1 SLC16A3^−/−, SLC16A1 knocked out
Source text: To test this, the inventors overexpressed SLC16A7 or SLC16A8 in HAP1 SLC16A3^−/− cells and knocked out SLC16A1 using CRISPR/Cas9. […]

NCIH358 cells = experiment: Lactate Glo lactate accumulation, NCIH358 lung cancer cells; conditions: 10 μM, 6 hours
Protocol: (§3) Protocol for lactate glo was modified based on Benjamin D et al., Cell Reports, 2018, 25(11):3047-3058.e4. Cells were seeded in 96 well plate in density 30,000 cells per well. Next day cells were treated with tested compounds, AZD3965 and syrosingopine (all in final concentration of 10 μM) or DMSO. After 6 hours of incubation at 37° C., cells were washed twice with PBS, lysed with 0.2N HCl, neutralized with 1M Tris-base (Sigma) and incubated for 1 hour at RT with lactate glo reagents (Promega). Lactate accumulation was then estimated based on luminescence signal.

HAP1 SLC16A1^−/− cells [3] = experiment: Growth curve, HAP1 SLC16A1-/- cells; conditions: different concentrations; counted 24 h, 48 h, 72 h
Protocol: Cells were seeded in 6 well plate in density of 15,000 cells per well in the presence of different concentrations of tested compounds in DMSO, or matching DMSO concentrations. Cells were washed with PBS, harvested with trypsin and counted with CASY counter (Roche) 24 h, 48 h and 72 h after the seeding. Cell number obtained at 24 h was set as 0, for each time point and concentration two wells were harvested and counted.

NCIH441 cells = experiment: Lactate Glo lactate accumulation, NCIH441 lung cancer cells; conditions: 10 μM, 6 hours
Protocol: as §3

Structure (SMILES)	IC50 (HAP1 WT cells) [µM]	IC50 (HAP1 SLC16A1^−/− cells [1]) [µM]	IC50 (HAP1 SLC16A3^−/− cells) [µM]	other results
Cc1nc2nc(C(F)(F)F)nn2c(C)c1CCC(=O)Nc1ccc(S(=O)(=O)N2CCCC2)cc1 [Compound 6]	> 30	0.41	> 30	
CCOc1ccc(NC(=O)CCc2c(C)nc3ncnn3c2C)cc1 [Compound 10]	> 30	7.07	> 30	viability at 10 µM (HAP1 SLC16A1^−/− cells [1]): 70.8%
CCOC(=O)Oc1c(OC)cc(C(=O)O[C@@H]2C[C@@H]3CN4CCc5c([nH]c6cc(OC)ccc56)[C@H]4C[C@@H]3[C@H](C(=O)OC)[C@H]2OC)cc1OC [syrosingopine, reference compound]				effect on viability of HAP1 SLC16A1^−/− cells (in words) (HAP1 SLC16A1^−/− cells [1]): decreased viability
Cc1cc(NC(=O)CCc2c(C)nc3nc(C(F)(F)F)nn3c2C)ccc1N1CCN(C)CC1 [Compound 5]	> 30	5.87	> 30	
Cc1nc2nc(C(F)(F)F)nn2c(C)c1CCC(=O)Nc1cccnc1 [Compound 18]	> 30	8.41	> 30	
CCc1cccc(NC(=O)CCc2c(C)nc3nc(C)nn3c2C)c1 [Compound 12]				viability at 10 µM (HAP1 SLC16A1^−/− cells [1]): 36.4%
Cc1cc(C)cc(NC(=O)CCc2c(C)nc3nc(C(F)(F)F)nn3c2C)c1 [Compound 2]	> 30	4.13	> 30	
Cc1nc2nc(C)c(CCC(=O)Nc3ccc(Br)c(C)c3)c(C)n2n1 [Compound 11]				viability at 10 µM (HAP1 SLC16A1^−/− cells [1]): 33.7%
Cc1[nH]nc(C(F)(F)F)c1Cc1sc2c(c1C(=O)N1C[C@](C)(O)CO1)c(=O)n(C)c(=O)n2C(C)C [AZD3965, reference compound]				killing of HAP1 cells dependent on SLC16A7 (in words) [2]: can be killed; effect on viability of HAP1 SLC16A3^−/− cells (in words) (HAP1 SLC16A3^−/− cells): reduced viability
Cc1nc2nc(C(F)(F)F)nn2c(C)c1CCC(=O)Nc1cnc2ccccc2c1 [Compound 8]	> 30	0.25	> 30	lactate accumulation in NCIH358 cells (NCIH358 cells): confirmed the lactate accumulation in both cell lines; growth rate / proliferation of HAP1 SLC16A1^−/− cells (HAP1 SLC16A1^−/− cells [3]): confirmed the growth reducing effect; also recorded: slowed down the proliferation in a dose-dependent manner; lactate accumulation in NCIH441 cells (NCIH441 cells): confirmed the lactate accumulation in both cell lines
Cc1ccc(NC(=O)CCc2c(C)nc3nc(C(F)(F)F)nn3c2C)cc1 [Compound 1]	> 30	3.32	> 30	
